Experimental data from patent US4444771A, “Azeto triazolo pyrazine β-lactam antibacterial agents” (Beecham Group Limited, priority 1980, dated 1984).
Structures can show the parent of a compound that is named as a salt.

Assays:
Type in all cases: cell-based
B. subtilis = assay: Antibacterial activity, minimum inhibitory concentration, B. subtilis; conditions: Bacillus subtilis, serial dilution, DST agar + 10% horse blood, 10^-2 dilution inoculum, 37°, 18 h
Protocol: (§1) Minimum Inhibitory Concentration μg/ml^a
(§2) ^a Determined by serial dilution on DST agar containing 10% horse
(§3) blood using an inoculum of 0.001 ml of a 10^-2 dilution for
(§4) Grampositive bacteria or a 10^-4 dilution for Gramnegative organisms.
(§5) MIC values were read after incubation at 37° for eighteen hours.

S. aureus Oxford = assay: Antibacterial activity, minimum inhibitory concentration, S. aureus Oxford; conditions: Staphylococcus aureus, serial dilution, DST agar + 10% horse blood, 10^-2 dilution inoculum, 37°, 18 h
Protocol: as §1, §2, §3, §4, §5

S. pneumoniae = assay: Antibacterial activity, minimum inhibitory concentration, S. pneumoniae; conditions: Streptococcus pneumoniae, serial dilution, DST agar + 10% horse blood, 10^-2 dilution inoculum, 37°, 18 h
Protocol: as §1, §2, §3, §4, §5

S. faecalis = assay: Antibacterial activity, minimum inhibitory concentration, S. faecalis; conditions: Enterococcus faecalis, serial dilution, DST agar + 10% horse blood, 10^-2 dilution inoculum, 37°, 18 h
Protocol: as §1, §2, §3, §4, §5

S. pyogenes = assay: Antibacterial activity, minimum inhibitory concentration, S. pyogenes; conditions: Streptococcus pyogenes, serial dilution, DST agar + 10% horse blood, 10^-2 dilution inoculum, 37°, 18 h
Protocol: as §1, §2, §3, §4, §5

S. aureus Russell = assay: Antibacterial activity, minimum inhibitory concentration, S. aureus Russell; conditions: Staphylococcus aureus; S. aureus Russell (lactamase-producing benzylpenicillin-resistant strain); serial dilution, DST agar + 10% horse blood, 10^-2 dilution inoculum, 37°, 18 h
Protocol: as §1, §2, §3, §4, §5
^b lactamase-producing benzylpenicillinresistant strain.

P. mirabilis = assay: Antibacterial activity, minimum inhibitory concentration, P. mirabilis; conditions: Proteus mirabilis, serial dilution, DST agar + 10% horse blood, 10^-4 dilution inoculum, 37°, 18 h
Protocol: as §1, §2, §3, §4, §5

K. aerogenes = assay: Antibacterial activity, minimum inhibitory concentration, K. aerogenes; conditions: Klebsiella aerogenes, serial dilution, DST agar + 10% horse blood, 10^-4 dilution inoculum, 37°, 18 h
Protocol: as §1, §2, §3, §4, §5

E. coli = assay: Antibacterial activity, minimum inhibitory concentration, E. coli; conditions: Escherichia coli, serial dilution, DST agar + 10% horse blood, 10^-4 dilution inoculum, 37°, 18 h
Protocol: as §1, §2, §3, §4, §5

S. typhimurium = assay: Antibacterial activity, minimum inhibitory concentration, S. typhimurium; conditions: Salmonella enterica, serial dilution, DST agar + 10% horse blood, 10^-4 dilution inoculum, 37°, 18 h
Protocol: as §1, §2, §3, §4, §5

Row | SMILES | MIC (B. subtilis) [µg/mL] | MIC (S. aureus Oxford) [µg/mL] | MIC (S. pneumoniae) [µg/mL] | MIC (S. faecalis) [µg/mL] | MIC (S. pyogenes) [µg/mL] | MIC (S. aureus Russell) [µg/mL] | MIC (P. mirabilis) [µg/mL] | MIC (K. aerogenes) [µg/mL] | MIC (E. coli) [µg/mL] | MIC (S. typhimurium) [µg/mL]
1 | CC1=C(C(=O)O)N2C(=O)[C@H](NC(=O)Cc3cccs3)[C@@H]2c2cnnn21 (relative stereo) [Compound 55, (4bRS,5RS) 5,6-Dihydro-9-methyl-6-oxo-5-(2-thienylacetamido)-4bH-azeto-[2,1-c]-v-triazolo-[1,5-a]-pyrazine-8-carboxylic acid, p-toluidine salt)] | 0.5 | 10 | 2.5 | 25 | 0.2 | 100 | 10 | 100 | – | –
2 | CC1=C(C(=O)O)N2C(=O)[C@H](NC(=O)COc3ccccc3)[C@@H]2c2cnnn21 (relative stereo) [Compound 15, (4bRS,5RS) 5,6-Dihydro-9-methyl-6-oxo-5-phenoxyacetamido-4bH-azeto-[2,1-c]v-triazolo-[1,5-a]-pyrazine-8-carboxylic acid] | 5 | 25 | 2.5 | > 100 | 5 | 100 | > 100 | > 100 | > 100 | > 100
3 | CC1=C(C(=O)O)N2C(=O)[C@@H](NC(=O)[C@H](O)c3ccccc3)[C@H]2c2cnnn21 [Compound 40, (4bS,5S)-5,6-Dihydro-5-D-α-hydroxyphenylacetamido-9-methyl-6-oxo-4bH-azeto-[2,1-c]-v-triazolo-[1,5-a]-pyrazine-8-carboxylic acid] | 0.5 | 25 | ≤ 0.2 | 100 | 50 | 100 | 10 | 100 | > 100 | 25
4 | CC1=C(C(=O)O)N2C(=O)C(NC(=O)[C@H](N)c3ccccc3)C2c2cnnn21 (stereo partly drawn) [Compound 28, (4bRS,5RS)-5,6-Dihydro-9-methyl-6-oxo-5-D-α-phenylglycylamino-4bH-azeto-[2,1-c]-v-triazolo[1,5-a]pyrazine-8-carboxylic acid, p-toluidine salt] | 10 | 100 | 10 | > 100 | 2.5 | > 100 | > 100 | > 100 | > 100 | > 100
5 | CC(=O)N[C@H]1C(=O)N2C(C(=O)O)=C(C)n3nncc3[C@@H]12 (relative stereo) [Compound 35, (4bRS,5RS) 5-Acetamido-5,6-dihydro-9-methyl-6-oxo-4bH-azeto-[2,1-c]-v-triazolo-pyrazine-8-carboxylic acid] | 5 | 100 | 5 | > 100 | 2.5 | > 100 | > 100 | > 100 | > 100 | 100
6 | CC1=C(C(=O)O)N2C(=O)[C@@H](NC(=O)COc3ccccc3)[C@H]2c2cnnn21 [Compound 42, (4bS,5S)-5,6-Dihydro-9-methyl-6-oxo-5-phenoxyacetamido-4bH-azeto-[2,1-c]-v-triazolo-[1,5-a]-pyrazine-8-carboxylic acid] | 0.5 | – | 5 | 50 | 2.5 | > 50 | > 50 | > 50 | > 50 | > 50
7 | CC1=C(C(=O)O)N2C(=O)[C@H](NC(=O)[C@H](O)c3ccccc3)[C@@H]2c2cnnn21 [Compound 39, (4bR,5R) 5,6-Dihydro-5-D-α-hydroxyphenylacetamido-9-methyl-6-oxo-4bH-azeto-[2,1-c]-v-triazolo-[1,5-a]-pyrazine-8-carboxylic acid] | 100 | > 100 | > 100 | > 100 | > 100 | > 100 | > 100 | > 100 | > 100 | > 100
8 | CC1=C(C(=O)O)N2C(=O)[C@H](NC(=O)C(C(=O)Oc3ccccc3)c3ccccc3)[C@@H]2c2cnnn21 (relative stereo) [Compound 22, (4bRS,5RS) 5,6-Dihydro-9-methyl-6-oxo-5-[DL-α-phenoxycarbonylphenylacetamido]-4bH-azeto[2.1-c]-v-triazolo[1.5-a]-pyrazine-8-carboxylic acid] | 100 | > 100 | – | > 100 | – | > 100 | 100 | > 100 | 100 | 50
